# In patent publication US4124726A, “Anti-inflammatory agent of benzoyl derivative” (priority 1976, dated 1978):
# Assays:
# platelet aggregation = assay: blood platelet aggregation inhibition, collagen as inducer; format: cell-based; conditions: 10^-4 mole, rabbit PRP
# From the text: Blood platelet aggregation inhibiting effect
# Male rabbits (Japan original white strain 3.3 to 3.6 kg) were anesthetized with Thiopental sodium and blood was sampled from the carotid artery.
# in vivo = conditions: mouse, po
# Protocol: Each sample was dissolved in olive oil or dispersed in 1% Tween 20 aqueous solution.
# thrombosis = assay: inhibiting effect on thrombosis (arterio-venous by-pass, silk thread); format: in vivo, SD type male rats; conditions: 100 mg/kg oral, 5 hours before first circulation, rats; for inhibition in vivo at 100 mg/kg: Rattus norvegicus, read-out: Thrombosis inh.
# Protocol: Inhibiting effect on thrombosis:
# The inhibiting effects of the samples of the invention on thrombosis were tested by the following test method.
# A 0.5 ml of 50 μ/ml of the heparin physiological saline was added through the polyethylene tube before the first blood circulation. After the blood circulation for 15 minutes, the circulation was stopped in the middle of the tubing at artery side with a pinch cock.
# Then, 0.2 ml of the heparin physiological saline was added to remove the blood coagulates on the tubing wall and another new polyethylene tubing filled with the heparin solution and containing a piece of new silk thread was attached between the venous and artery tubing ends.
# The blood circulation was reestablished by opening the pinch cock. After 15 minutes, the wet weight of thrombus on the silk thread was similarly measured. In the same manner, the third circulation was performed and wet weight of thrombus measured.
# The amount of thrombus was given by the equation A. [formula] Each sample was suspended in an aqueous solution of sodium carboxymethyl cellulose and the oral dose of the suspension (100 mg/kg) was performed at 5 hours before the first blood circulation. The amount of thrombus after the oral dose of the sample was calculated in the same manner as that of control circulations.
# The thrombosis inhibition rate was given by the equation B. [formula]
# carragheenin edema = assay: acute carragheenin edema inhibition (anti-inflammatory effect); format: in vivo, male rats; conditions: carragheenin edema, rats, Table 2; for ED50: oral, read-out: 50% inhibition rate ED50
# Protocol: The edema was induced by subcutaneous injection of 1% carraheenin suspension in saline to the hind paws of male rats weighing 150 to 180 g. Each sample was orally given at the dosage of 100 mg/kg just before the inoculation of carragheenin.
# [1] = system: painful stretchings induced by acetic acid; assay: acetic acid induced stretching (analgesic effect); conditions: for Analgesic (percentage diminution of times of painful stretchings): 100 mg/kg oral, 0.7% acetic acid i.p., mice
# Protocol: Each sample was orally administrated in the dosage of 100 mg/kg before injection of acetic acid.
Structure (SMILES),Blood platelet agg. inh. (percentage inhibition of platelet aggregation) (platelet aggregation) [%],LD50 at 72 h (in vivo) [mg/kg],inhibition in vivo at 100 mg/kg (thrombosis) [%],Analgesic (percentage diminution of times of painful stretchings) [1] [%],other results
CCCCc1ccc(C(=O)c2ccc(CCCC)cc2)cc1 [compound 43],3.5,> 10000,86,,
CCCCc1ccc(C(=O)c2ccccc2Cl)cc1 [compound 44],10.5,2000,,15.6,ED50 (carragheenin edema; Rattus norvegicus): 70 mg/kg
CCCCCc1ccc(C(=O)c2ccc(OC)cc2)cc1 [compound 45],17.7,5000,,12.5,ED50 (carragheenin edema; Rattus norvegicus): > 400 mg/kg
CCCCc1ccc(C(=O)c2ccc(F)cc2C)cc1 [compound 46],16.5,2000,,13.4,ED50 (carragheenin edema; Rattus norvegicus): 400 mg/kg
O=C(Cc1ccccc1)c1ccccc1 [compound 47],18.3,,,13.1,Anti-inf. (edema inhibition rate) (carragheenin edema; 100 mg/kg oral): 20.9%; Thrombosis inh. (thrombosis): 15.6%
O=C(C(=O)c1ccccc1)c1ccccc1 [compound 53],10.1,,,14.2,Anti-inf. (edema inhibition rate) (carragheenin edema; 100 mg/kg oral): 20.3%; Thrombosis inh. (thrombosis): 19.2%
Cc1ccc(C(=O)C(=O)c2ccccc2)cc1 [compound 54],15.4,,,11.3,Anti-inf. (edema inhibition rate) (carragheenin edema; 100 mg/kg oral): 25.5%; Thrombosis inh. (thrombosis): 20.3%
COc1ccc(C(=O)Cc2ccccc2)cc1 [compound 57],12.5,,6.5,,
CCCCOc1ccc(C(=O)Cc2ccc(Cl)cc2)cc1 [compound 61],15.8,,8.5,,
CCCCCCOc1ccc(C(=O)Cc2ccc(Cl)cc2)cc1 [compound 62],12.3,,7.8,,
CCCc1ccc(C(=O)c2ccc(Cl)cc2)cc1 [compound 63],15.6,,6.2,,
CCCCCCCCCc1ccc(C(=O)c2ccccc2)cc1 [compound 70],17.2,,10,,
O=C(c1ccccc1)c1ccc(C2CCCCC2)cc1 [compound 73],,6000,28.8,,"inhibition in vivo at 100 mg/kg (carragheenin edema; Rattus norvegicus, 100 mg/kg oral, read-out: Anti-inf. (edema inhibition rate)): 32.1%; inhibition at 100 µM (platelet aggregation; Oryctolagus cuniculus, Platelet, read-out: Blood platelet agg. inh. (percentage inhibition of platelet aggregation)): 20.3%; inhibition in vivo at 100 mg/kg ([1]; Mus musculus, po, read-out: Analgesic (percentage diminution of times of painful stretchings)): 10%"
CCCCCc1ccc(C(=O)c2ccc(C)cc2)cc1 [compound 84],8.6,10000,16,15.3,
CCCc1ccc(C(=O)c2ccccc2C)cc1 [compound 90],10.8,,15,,
Cc1ccccc1C(=O)c1c(C)c(C)cc(C)c1C [compound 91],14.7,,31,,
